Several values for one entry are separate records, joined by “and”; a condition that tells them apart may be missing. Equal entries are not always repeated. Non-standard residues stand in square brackets, D forms with d. Residues, ends and D or L forms follow the SMILES beside them.
How the values were obtained:
[1] = test system: malnourished subjects with CKD; assay: Phase II CKD: anthropometry; type: in vivo, human; settings: ITT
Method: Height (cm) was measured only at the screening visit. Anthrompometry was measured at every visit from baseline to follow-up. Anthropometric measurements included weight, skinfold thicknesses and arm circumference. Weight (kg) was measured using a high performance scale. Subjects were asked to stand on the scale with minimal clothing, no shoes, and with even weight on both feet. Skinfold thickness (mm) was measured by using Harpenden Skinfold Callipers at 4 sites: biceps, triceps, suprailiacal and subscapular. Arm circumference (cm) was measured using a tape measure that is flexible, inelastic and metric. The site measured was marked, and the tape was not to be too tight or too loose, and to lie flat on the skin, and be horizontal. Bioimpedance measurements were made to measure body composition at every visit from baseline to Day 28. The bioimpedance scale (RJL Systems) was used. Resistance, reactance and the phase angle were recorded.

[2] = in vivo; settings: Sprague-Dawley, rat
Method: No mortality, adverse clinical sign, effects on body weight, food consumption, opthalmology, haematology, coagulation, clinical chemistry, urinalysis, organ weights, macroscopic or microscopic observations were noted following the dosing or recovery periods. The no adverse effect level for this study was determined to be 3 mg/kg body weight.

[3] = test system: healthy male volunteers; assay: Phase I/II study in healthy male volunteers: safety and tolerability; type: in vivo, human
Method: In order to evaluate the safety of the drug, all reported adverse events were considered during the study. The effects of the drug exerted specifically on the liver, renal, thyroid, cardiac and haematological functions were evaluated. The MED was defined as the dose of the GHRH(1-29)NH2 synthetic analog lower than the subsequent dose that produced the best secretion profile of GH.
It was a crossover single-blinded Phase I/II trial of escalating doses of the GHRH(1-29)NH2 synthetic analog controlled versus placebo. Ten healthy middle-aged male volunteers, between 50 and 55 years old, were recruited. All 10 subjects received a single subcutaneous dose of the GHRH(1-29)NH2 synthetic analog (reconstituted in water for injection), per day for 5 days, in a dose range from 5 to 25 μg/kg of body weight (lower than the maximal dose used to treat GH deficiency in children, which was 30 μg/kg of body weight).
After signing the informed consent form, all volunteers were clinically evaluated by the investigator and a chest x-ray and basal electrocardiogram and routine laboratory tests were performed. The analysis included: haemogram (hematocrit, haemoglobin, complete blood cell count, mean cell volume (MCV), mean corpuscular haemoglobin concentration (MCHC) and platelet count), liver function tests (aminotransferases, total proteins, albumin, alkaline phosphatase, billirubin, lactate dehydrogenase and prothrombin time), biochemistry (creatinine, urea, sodium, potassium, calcium, phosphorus, fasting glucose and postprandial glucose), urinalysis (pH, glucose, blood, proteins, and leukocytes), triiodothyronine, thyroxin and thyroid stimulating hormone (TSH), serology, basal level of IGF-1 and urine drug abuse screening.
Once the volunteers were considered eligible, they were hospitalized for a period of 5 consecutive days. On Day 0 of admission successive samples of blood were taken to perform the basal secretion profile of GH during 24 hours. During 5-day hospitalization period, after the initial blood sampling to determine fasting glucose level, the appropriate dose of the GHRH(1-29)NH2 synthetic analog or placebo was administered and multiple samplings were performed to assess the profile of GH, postprandial glucose level and electrocardiogram after 60 minutes of the application of the GHRH(1-29)NH2 synthetic analog/placebo. Eight hours after drug administration, samples were obtained to determine IGF-1 level, thyroid hormones and routine analysis. After 30 days of admission, all the volunteers returned for new clinical evaluation to record any adverse events that could have occurred from the last day of hospitalization period and to take a blood sample for later determination of anti-GHRH(1-29)NH2 synthetic analog antibodies.

[4] = test system: Leptin and adiponectin; assay: Phase II CKD: fat regulation (leptin, adiponectin); type: in vivo, human
Method: Leptin (ng/mL) and adiponectin (μg/mL) were measured at every visit from baseline to Day 28 as markers for regulating metabolism. Samples were analysed at the Department of Nephrology, Endocrinology and Metabolic Diseases, Silesian University School of Medicine, Katowice.

[5] = test system: IGF-1, IGFBP-1 and IGFBP-3; assay: Phase II CKD: total IGF-1, IGFBP-1 and IGFBP-3; type: in vivo, human; settings: day 42
[6] = test system: Salmonella strains, Chinese Hamster Ovary cells, erythrocyte micronucleus test; assay: Mutagenicity tests
[7] = test system: malnourished subjects with CKD; assay: Phase II CKD: dietary assessment (spontaneous nutrient intake); type: in vivo, human; settings: ITT
Method: Dietary assessments were performed at the baseline visit and were repeated on Day 28. The subjects were asked to write down everything they ate and drank throughout the 3 days preceding the visit. The local dietician then calculated the mean amount of carbohydrates, fat and protein consumed by the subjects per day and calculated energy intake.

[8] = all volunteers, throughout the study
[9] = Baseline, listed as GHRH(1-29)NH2 synthetic analog
[10] = Day 28, listed as GHRH(1-29)NH2 synthetic analog

SMILES: CC[C@H](C)[C@H](NC(=O)[C@H](C)NC(=O)[C@H](CC(=O)O)NC(=O)[C@@H](C)NC(=O)[C@@H](N)Cc1ccc(O)cc1)C(=O)N[C@@H](Cc1ccccc1)C(=O)N[C@H](C(=O)N[C@@H](CC(N)=O)C(=O)N[C@@H](CO)C(=O)N[C@H](Cc1ccc(O)cc1)C(=O)N[C@@H](CCCNC(=N)N)C(=O)N[C@@H](CCCCN)C(=O)N[C@H](C(=O)N[C@@H](CC(C)C)C(=O)N[C@H](C)C(=O)N[C@@H](CCC(N)=O)C(=O)N[C@@H](CC(C)C)C(=O)N[C@@H](CO)C(=O)N[C@@H](C)C(=O)N[C@@H](CCCNC(=N)N)C(=O)N[C@@H](CCCCN)C(=O)N[C@@H](CCCCN)C(=O)N[C@@H](CC(C)C)C(=O)N[C@@H](CCC(N)=O)C(=O)N[C@@H](CC(=O)O)C(=O)N[C@H](C(=O)N[C@@H](CCSC)C(=O)N[C@@H](CO)C(=O)N[C@@H](CCCNC(=N)N)C(N)=O)[C@@H](C)CC)C(C)C)[C@@H](C)O [GHRH analog #5, [D-Ala^2, D-Tyr^10, D-Ala^15, Lys^22] hGHRH(1-29)-NH2] (H-Y[dA]DAIFTNS[dY]RKVL[dA]QLSARKKLQDIMSR-NH2)
- Arm circumference: mean (SD) ([1]; Baseline): 26.35 (5.42) cm
- Body weight: mean (SD) ([1]; Baseline): 62.84 (9.98) kg
- Skinfold thickness biceps: median ([1]; Baseline): 5.1 mm
- Skinfold thickness subscapular: median ([1]; Baseline): 8.0 mm
- Skinfold thickness suprailiacal: median ([1]; Baseline): 7.0 mm
- Skinfold thickness triceps: median ([1]; Baseline): 12.0 mm
- Arm circumference: mean (SD) ([1]; Day 28): 27.33 (4.81) cm
- Body weight: mean (SD) ([1]; Day 28): 63.21 (10.45) kg
- Skinfold thickness biceps: median ([1]; Day 28): 4.1 mm
- Skinfold thickness subscapular: median ([1]; Day 28): 8.6 mm
- Skinfold thickness suprailiacal: median ([1]; Day 28): 7.3 mm
- Skinfold thickness triceps: median ([1]; Day 28): 13.3 mm
- Arm circumference: adjusted difference ([1]; vs placebo): 0.33 cm
- Body weight: adjusted difference ([1]; vs placebo): 0.96 kg
- Skinfold thickness triceps: ratio ([1]; vs placebo): 1.066
- Fat free mass (kg): mean (SD) ([1]; anthropometry, Baseline): 46.64 (9.13) kg
- Fat mass (%): median ([1]; anthropometry, Baseline): 25.4%
- Fat mass (kg): median ([1]; anthropometry, Baseline): 15.8 kg
- Fat free mass (kg): mean (SD) ([1]; anthropometry, Baseline, listed as GHRH(1-29)NH2 synthetic analog): 46.64 kg
- Fat free mass (kg): mean (SD) ([1]; anthropometry, Day 28): 46.20 (9.16) kg
- Fat mass (%): median ([1]; anthropometry, Day 28): 25.9%
- Fat mass (kg): median ([1]; anthropometry, Day 28): 15.6 kg
- Fat free mass (kg): mean (SD) ([1]; anthropometry, Day 28, listed as GHRH(1-29)NH2 synthetic analog): 46.20 kg
- Fat free mass (kg): adjusted difference ([1]; anthropometry, vs placebo): 0.41 kg
- NOAEL at 672 h [2]: 3 mg/kg
- Serious adverse events ([3]; 5 to 25 μg/kg sc, healthy male volunteers): no serious adverse events were reported
- Aminotransferase elevation, one case ([3]; Day 1 to Day 5): less than 2.5 times the upper normal limit
- Neutrophils, neutropenia case ([3]; Day 2, after 10 μg/kg dose): 1,406 neutrophyles/mm3
- White blood cells, leukopenia case ([3]; Day 2, after 10 μg/kg dose): 3,800 WBC/mm3
- Eosinophils, eosinophilia in one volunteer ([3]; Day 5, 5 μg/kg dose): 808 eosinophyls/mm3
- White blood cells, leukocytosis in one volunteer ([3]; Day 5, 5 μg/kg dose): 12,400 WBC/mm3
- Mean decrease of haematocrit [3, 8]: 10.1±1.9 points
- Mean decrease of haemoglobin [3, 8]: 2.8 ± 0.8 g/dL
- Thyroid anomalies, cardiac dysfunction ([3]; human, in vivo): Neither thyroid anomalies nor cardiac dysfunction were reported
- Adiponectin: median (95% CI) ([4]; ITT, Baseline): 20604 ng/mL
- Leptin: mean (SD) ([4]; ITT, Baseline): 23.80 (34.29) ng/mL
- Adiponectin: median (95% CI) ([4]; ITT, Day 7): 21293 (14535; 27438) ng/mL
- Adiponectin: median (95% CI) ([4]; ITT, Day 14): 21548 (15810; 27030) ng/mL
- Adiponectin: median (95% CI) ([4]; ITT, Day 21): 21905 (15810; 31365) ng/mL
- Adiponectin: median (95% CI) ([4]; ITT, Day 28): 20553 (16320; 27030) ng/mL
- Leptin: mean (SD) ([4]; ITT, Day 28): 16.81 (21.81) ng/mL
- Leptin: ratio of means ([4]; ITT, Day 28, vs placebo): 0.866
- Leptin reduction from baseline, range in all but two patients ([4]; day 28): 10-70%
- Mean leptin as % of the mean in placebo group ([4]; in vivo): 70%
- Median IGF-1 after treatment discontinuation [5]: 368.2 ng/mL
- Clastogenicity [6]: not a clastogenic agent
- Mutagenicity ([6]; Salmonella strains, CHO cells, erythrocyte micronucleus test): no evidence of mutagenicity
- Energy intake: mean (SD) ([7]; Baseline): 1654 kcal/day and 1654.45 (394.75) kcal/day
- Protein intake: mean (SD) ([7]; Baseline): 62.46 g/day and 62.46 (17.71) g/day
- Energy intake: mean (SD) [7, 9]: 1654.5 kcal/day
- Protein intake: mean (SD) [7, 9]: 62.5 g/day
- Energy intake: mean (SD) ([7]; Day 28): 1533 kcal/day and 1532.70 (384.52) kcal/day
- Protein intake: mean (SD) ([7]; Day 28): 58.49 g/day and 58.49 (19.76) g/day
- Energy intake: mean (SD) [7, 10]: 1532.7 kcal/day
- Protein intake: mean (SD) [7, 10]: 58.5 g/day

From patent publication US20090088380A1, “GHRH ANALOGS AND THERAPEUTIC USES THEREOF” (priority 2007, published 2009)
